Measured values: patent US9517244B2, “Therapeutic combinations for use in neoplasia” (University of Florida Research Foundation, Inc., priority 2011, dated 2016)

Tests used:
[1] = system: T98; test: MTT assay, brain cancer cell line; assay type: cell-based; conditions: Homo sapiens, T98, 120 h, single agent, read-out: IC50 of NSC-30049
Description: (§1) The use of NSC-30049 as a chemopreventive agent for the treatment of brain cancer was also tested. NSC-30049 in combination with temozolomide was administered to brain cancer cell lines, including U118, U138, U87MG, A172, and T98 cell lines (Table 6). Cells were pretreated with the indicated concentrations of NSC-30049 followed by TMZ for 120 h. After treatment, cells were processed for the determination of viability by cell proliferation assay (MTT assay). The data from the graph was used for the determination of IC50, which is presented as the mean±SE of three different estimations. Increasing the concentration of NSC-30049 decreased the IC50 of temozolomide for all cell lines tested, regardless of whether they were MMR proficient or deficient.

[2] = system: A172; test: MTT assay, brain cancer cell line; assay type: cell-based; conditions: Homo sapiens, A 172, 120 h, single agent, read-out: IC50 of NSC-30049
Description: as §1

[3] = system: U87MG; test: MTT assay, brain cancer cell line; assay type: cell-based; conditions: Homo sapiens, U-87 MG, 120 h, single agent, read-out: IC50 of NSC-30049
Description: as §1

[4] = system: U118; test: MTT assay, brain cancer cell line; assay type: cell-based; conditions: 120 h, single agent, read-out: IC50 of NSC-30049
Description: as §1

[5] = system: U138; test: MTT assay, brain cancer cell line; assay type: cell-based; conditions: 120 h, single agent, read-out: IC50 of NSC-30049
Description: as §1

[6] = system: CD133, Nanog, Oct4, Sox2 expression in colon cancer stem cells; test: qRT-PCR of self-renewal marker genes in colon cancer stem cells; assay type: cell-based, human; conditions: 1.25 μM NSC-30049 + 1.25 μM OPT, 72 h, compared to either alone
Description: Cells were treated with 1.25 μM of NSC-30049 and 1.25 μM of OPT either alone or in combination for 72 h. Data are mean±SD of triplicate experiments. FIG. 9B depicts the inhibition in expression of self-renewal marker genes of colon cancer stem cells, qRT-PCR data of CD133+, Oct4, Sox2 and Nanog gene expression levels of parental cancer cells and colon cancer stem cells was obtained. Cells were treated with 1.25 μM of NSC-30049 and 1.25 μM of OPT either alone or in combination for 72 h. Fold change in gene expression values is shown as mean±SD of three experiments and are normalized to GAPDH gene expression.
Without being bound to a particular theory, the effect of administration of NSC-30049 in combination with oxaliplatin (OPT) on the expression of self-renewal marker genes of colon cancer stem cells was analyzed. Self-renewal marker genes are highly expressed in colon cancer stem cells compared to human parental cancer cells. qRT-PCR data of CD133+, Oct4, Sox2 and Nanog gene expression levels of parental cancer cells and colon cancer stem cells was obtained (FIG. 9B). Cells were treated with 1.25 μM of NSC-30049 and 1.25 μM of OPT either alone or in combination for 72 h. The fold change in gene expression values is shown as mean±SD of three experiments and were normalized to GAPDH gene expression. […]

[7] = system: AsPC1; test: MTT assay, pancreatic cancer cell line; assay type: cell-based, human; conditions: Homo sapiens; AsPC1 (dFdC-resistant); single agent; 72 h; read-out: IC50
[8] = system: CD133, Nanog, Oct4, Sox2 expression in GBM-L0 stem cells; test: qRT-PCR of self-renewal genes in GBM-L0 stem cells; assay type: cell-based; conditions: 2.5 μM NSC-30049 + 10 or 100 μM TMZ, 36 h, compared to either alone
Description: Cells were pretreated with 2.5 μM of NSC30049 or 10 or 100 μM TMZ alone or in combination with NSC-30049 for 36 h. Then, total RNA was isolated and processed for gRT-PCR. Data presented are the mean±SE of three different measurements. […] Treatment with NSC-30049 or TMZ reduced the expression of aldehyde dehydrogenase gene Aldh1a7 in GBM-LO stem cell line in vitro, but not treatment with NSC-30049 and TMZ. Cells were pretreated with 2.5 μM of NSC30049 or 10 or 100 μM of TMZ alone or in combination with NSC-30049 for 36 h. Then, total RNA was isolated and processed for qRT-PCR. Data presented are the mean±SE of three different measurements.
Without being bound to a particular theory, the effect of administration of NSC-30049 in combination with temozolomide (TMZ) on the expression of self-renewal marker genes of […] was analyzed. Self-renewal marker genes are highly expressed in colon cancer stem cells compared to human parental cancer cells. qRT-PCR data of CD133+, Oct4, Sox2 and Nanog gene expression levels of GBM-L0 stem cells was obtained (FIG. 14A). Cells were pretreated with 2.5 μM of NSC30049 or 10 or 100 μM of TMZ alone or in combination with NSC-30049 for 36 h. Then, total RNA was isolated and processed for qRT-PCR. Data presented are the mean±SE of three different measurements. […]

[9] = system: BxPC3; test: MTT assay, pancreatic cancer cell line; assay type: cell-based, human; conditions: Homo sapiens, BXPC-3; BxPC3 (dFdC-sensitive); single agent; 72 h; read-out: IC50
[10] = system: HCT-116 (MMR deficient) xenograft; test: xenograft model of colon cancer, tumor volume; assay type: in vivo; conditions: NSC-30049 2.5 mg/kg i.p. + temozolomide 20 mg/kg i.p., day 38
Description: (§2) FIG. 10A is a schematic representation of the experimental protocol. […] Data are the mean±SD of four to six animals in each group.
(§3) Xenograft models of colon cancer were used to test the effect of NSC-30049 as a chemopreventive agent when administered in combination with temozolomide. At day 0, the xenograft host was administered with cells from a colon cancer cell line (HCT-116, MMR deficient; HCT-116+ch3, MMR proficient). Thereafter, temozolomide (20 mg/kg body weight; intraperitoneal) and/or NSC-30049 (2.5 mg/kg body weight; intraperitoneal) were administered to the animals. Tumor growth was evaluated at day 38.

[11] = system: HCT-116+ch3 (MMR proficient) xenograft; test: xenograft model of colon cancer, tumor volume; assay type: in vivo; conditions: NSC-30049 2.5 mg/kg i.p. + temozolomide 20 mg/kg i.p., day 38
Description: as §2, §3

[12] = solubility in water; assay type: physicochemical

## ClCC=CC[N+]12CN3CN(CN(C3)C1)C2 [NSC-30049, 1-(4-Chloro-2-butenyl)-1λ˜5˜,3,5,7-tetraazatricyclo[3.3.1.1˜3,7˜]decane]
[1]
  IC50: 10.1 ± 0.3 µM
[2]
  IC50: 6.5 ± 0.3 µM
[3]
  IC50: 5.6 ± 1 µM
[4]
  IC50: 2.6 ± 0.1 µM
[5]
  IC50: 2.1 ± 0.1 µM
[6]
  expression of CD133, Nanog, Oct4, and Sox2: significantly inhibited the expression of CD133, Nanog, Oct4, and Sox2
[7]
  IC50: 1.88 ± 0.11 µM
[8]
  expression of CD133, Nanog, Oct4, and Sox2: significantly inhibited the expression of CD133, Nanog, Oct4, and Sox2
[9]
  IC50: 3.87 ± 0.24 µM
[10]
  inhibition of tumor growth (tumor volume): synergistic effect on the inhibition of tumor growth
[11]
  inhibition of tumor growth (tumor volume): synergistic effect on the inhibition of tumor growth
[12]
  solubility in water: readily soluble in water
